The assay deals with T1, human MPO (Homo sapiens, UniProt P05164).
T1 sequence (P05164 49-745): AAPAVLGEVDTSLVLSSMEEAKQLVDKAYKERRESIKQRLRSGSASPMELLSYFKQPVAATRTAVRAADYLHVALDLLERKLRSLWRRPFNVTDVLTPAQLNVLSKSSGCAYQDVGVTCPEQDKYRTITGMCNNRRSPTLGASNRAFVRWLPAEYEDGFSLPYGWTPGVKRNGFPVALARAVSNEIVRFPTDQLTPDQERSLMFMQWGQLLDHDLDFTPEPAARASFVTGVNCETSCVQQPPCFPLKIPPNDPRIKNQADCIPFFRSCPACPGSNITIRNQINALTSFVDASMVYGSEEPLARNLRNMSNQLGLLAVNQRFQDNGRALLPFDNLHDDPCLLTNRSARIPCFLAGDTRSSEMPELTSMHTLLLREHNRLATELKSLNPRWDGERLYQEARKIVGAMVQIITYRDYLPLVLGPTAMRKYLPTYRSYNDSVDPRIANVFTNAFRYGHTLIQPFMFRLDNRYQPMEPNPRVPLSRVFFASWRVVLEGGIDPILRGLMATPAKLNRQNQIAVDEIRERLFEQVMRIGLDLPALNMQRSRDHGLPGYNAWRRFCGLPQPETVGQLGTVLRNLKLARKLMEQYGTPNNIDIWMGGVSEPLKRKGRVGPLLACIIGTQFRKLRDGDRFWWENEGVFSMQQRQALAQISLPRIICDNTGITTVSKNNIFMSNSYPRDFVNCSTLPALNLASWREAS
As to the kind of experiment: MPO inhibition screen (TMB oxidation, absorbance). As to conditions: in the presence of tyrosine (final 8 μM); human MPO 2.5 nM; H2O2 100 μM. The assay is classed as biochemical. As to the method:
Methods for the determination of MPO inhibitory activity are disclosed in patent application WO 02/090575. The pharmacological activity of compounds according to the invention was tested in the following screen in which the compounds were either tested alone or in the presence of added tyrosine:
Assay buffer: 20 mM sodium/potassium phosphate buffer pH 6.5 containing 10 mM taurine and 100 mM NaCl.
Developing reagent: 2 mM 3,3′,5,5′-tetramethylbenzidine (TMB), 200 μM KI, 200 mM acetate buffer pH 5.4 with 20% DMF.
To 10 μl of diluted compounds in assay buffer, 40 μl of human MPO (final concentration 2.5 nM), with or without 20 μM tyrosine (final concentration, if present, 8 μM), was added and the mixture was incubated for 10 minutes at ambient temperature. Then 50 μl of H2O2 (final concentration 100 μM), or assay buffer alone as a control, were added. After incubation for 10 minutes at ambient temperature, the reaction was stopped by adding 10 μl 0.2 mg/ml of catalase (final concentration 18 μg/ml). The reaction mixture was left for an additional 5 minutes before 100 μl of TMB developing reagent was added. The amount of oxidised 3,3′,5,5′-tetramethylbenzidine formed was then measured after about 5 minutes using absorbance spectroscopy at about […]. IC50 values were then determined using standard procedures.

pIC50: −log10 of the molar value.

For orientation: pIC50 means −log10 of the IC50, conventionally taken in molar units. As for `S=c1[nH]nc(Cc2ccccn2)n1C1CCN(Cc2ccccc2)C1` (stereo not drawn) [Example 5, 4-(1-Benzyl-pyrrolidin-3-yl)-5-pyridin-2-ylmethyl-2,4-dihydro-[1,2,4]triazole-3-thione], the pIC50 was 5.14.
Next, `O[C@@H]1CCCC[C@H]1n1c(COc2ccccc2Cl)n[nH]c1=S` (relative stereo) [Example 2, 5-(2-Chloro-phenoxymethyl)-4-(trans-2-hydroxycyclohexyl)-2,4-dihydro-[1,2,4]triazole-3-thione]: 5.44; `S=c1[nH]nc(Cc2ccccn2)n1C1CC2C=CC1C2` (stereo not drawn) [Example 4, 4-(Bicyclo[2.2.1]hept-5-en-2-yl)-5-pyridin-2-ylmethyl-2,4-dihydro-[1,2,4]triazole-3-thione]: 5.17.

For the origin of these results see patent US20080096929A1, “Novel Use” (ASTRAZENECA AB, priority 2004, published 2008).
